Measurements taken from the NIST ThermoML archive (doi:10.1016/j.jct.2004.12.014).
Numbers after ± are expanded uncertainties.

How the values were obtained:
[1] = xn = mol fraction of the nth substance listed; conditions: 318.15 K, 101 kPa, Liquid
[2] = excess molar enthalpy (molar enthalpy of mixing); xn = mol fraction of the nth substance listed; conditions: 318.15 K, 101 kPa, Liquid

CCCCOC(=O)CC [butyl propanoate] + CCCCCCC
Conditions	excess molar enthalpy [kcal/mol]	excess molar volume [m3/mol]
[1], x1 = 0.0273	–	5.6e-08 ± 1.6e-08
[1], x1 = 0.0572	–	1.25e-07 ± 1.6e-08
[1], x1 = 0.1181	–	2.05e-07 ± 1.6e-08
[1], x1 = 0.1785	–	2.96e-07 ± 1.7e-08
[1], x1 = 0.2334	–	3.5e-07 ± 1.7e-08
[1], x1 = 0.2923	–	3.76e-07 ± 1.7e-08
[1], x1 = 0.3518	–	3.93e-07 ± 1.7e-08
[1], x1 = 0.4089	–	4e-07 ± 1.7e-08
[1], x1 = 0.4681	–	3.95e-07 ± 1.7e-08
[1], x1 = 0.528	–	3.75e-07 ± 1.7e-08
[1], x1 = 0.586	–	3.44e-07 ± 1.7e-08
[1], x1 = 0.6449	–	3.06e-07 ± 1.7e-08
[1], x1 = 0.7036	–	2.6e-07 ± 1.7e-08
[1], x1 = 0.7666	–	2.08e-07 ± 1.6e-08
[1], x1 = 0.8207	–	1.76e-07 ± 1.6e-08
[1], x1 = 0.8838	–	1.05e-07 ± 1.6e-08
[1], x1 = 0.937	–	7.2e-08 ± 1.6e-08
[2], x1 = 0.0476	0.0417 ± 0.00105	–
[2], x1 = 0.1067	0.0841 ± 0.0017	–
[2], x1 = 0.1732	0.121 ± 0.00225	–
[2], x1 = 0.2357	0.146 ± 0.00263	–
[2], x1 = 0.2979	0.163 ± 0.00287	–
[2], x1 = 0.3579	0.176 ± 0.00311	–
[2], x1 = 0.4131	0.183 ± 0.00311	–
[2], x1 = 0.4328	0.185 ± 0.00311	–
[2], x1 = 0.464	0.186 ± 0.00335	–
[2], x1 = 0.475	0.187 ± 0.00335	–
[2], x1 = 0.5206	0.186 ± 0.00335	–
[2], x1 = 0.5701	0.181 ± 0.00311	–
[2], x1 = 0.6256	0.171 ± 0.00311	–
[2], x1 = 0.6846	0.156 ± 0.00287	–
[2], x1 = 0.7498	0.134 ± 0.00239	–
[2], x1 = 0.8152	0.106 ± 0.00203	–
[2], x1 = 0.8835	0.0717 ± 0.00151	–
[2], x1 = 0.9449	0.0357 ± 0.000956	–

CCCCOC(=O)CC [butyl propanoate] + CCCCCCCCC
Conditions	excess molar enthalpy [kcal/mol]	excess molar volume [m3/mol]
[1], x1 = 0.0333	–	9.9e-08 ± 1.6e-08
[1], x1 = 0.0721	–	1.95e-07 ± 1.6e-08
[1], x1 = 0.139	–	3.26e-07 ± 1.7e-08
[1], x1 = 0.2059	–	4.35e-07 ± 1.8e-08
[1], x1 = 0.2687	–	5.18e-07 ± 1.8e-08
[1], x1 = 0.3345	–	5.69e-07 ± 1.8e-08
[1], x1 = 0.3947	–	5.89e-07 ± 1.8e-08
[1], x1 = 0.4555	–	6.09e-07 ± 1.8e-08
[1], x1 = 0.5165	–	6.08e-07 ± 1.8e-08
[1], x1 = 0.5747	–	5.79e-07 ± 1.8e-08
[1], x1 = 0.6293	–	5.5e-07 ± 1.8e-08
[1], x1 = 0.6868	–	5.08e-07 ± 1.8e-08
[1], x1 = 0.7408	–	4.43e-07 ± 1.8e-08
[1], x1 = 0.7931	–	3.73e-07 ± 1.7e-08
[1], x1 = 0.8466	–	3.03e-07 ± 1.7e-08
[1], x1 = 0.8978	–	2.16e-07 ± 1.7e-08
[1], x1 = 0.9473	–	1.21e-07 ± 1.6e-08
[2], x1 = 0.0694	0.0639 ± 0.00139	–
[2], x1 = 0.1491	0.116 ± 0.00217	–
[2], x1 = 0.2269	0.159 ± 0.00287	–
[2], x1 = 0.302	0.189 ± 0.00335	–
[2], x1 = 0.3723	0.207 ± 0.00359	–
[2], x1 = 0.4365	0.215 ± 0.00359	–
[2], x1 = 0.4936	0.215 ± 0.00359	–
[2], x1 = 0.5364	0.213 ± 0.00359	–
[2], x1 = 0.5441	0.211 ± 0.00359	–
[2], x1 = 0.5775	0.21 ± 0.00359	–
[2], x1 = 0.5891	0.207 ± 0.00359	–
[2], x1 = 0.6309	0.2 ± 0.00359	–
[2], x1 = 0.6873	0.184 ± 0.00311	–
[2], x1 = 0.7512	0.159 ± 0.00287	–
[2], x1 = 0.8149	0.128 ± 0.00237	–
[2], x1 = 0.8787	0.089 ± 0.00177	–
[2], x1 = 0.9424	0.0465 ± 0.00112	–

CCCCOC(=O)CC [butyl propanoate] + CCCCCCCCCCC
Conditions	excess molar enthalpy [kcal/mol]	excess molar volume [m3/mol]
[1], x1 = 0.0439	–	1.43e-07 ± 1.6e-08
[1], x1 = 0.0844	–	2.51e-07 ± 1.7e-08
[1], x1 = 0.1613	–	4.24e-07 ± 1.7e-08
[1], x1 = 0.2331	–	5.45e-07 ± 1.8e-08
[1], x1 = 0.3029	–	6.41e-07 ± 1.8e-08
[1], x1 = 0.3719	–	7.16e-07 ± 1.9e-08
[1], x1 = 0.4347	–	7.45e-07 ± 1.9e-08
[1], x1 = 0.4991	–	7.49e-07 ± 1.9e-08
[1], x1 = 0.5571	–	7.43e-07 ± 1.9e-08
[1], x1 = 0.6136	–	7.09e-07 ± 1.9e-08
[1], x1 = 0.6682	–	6.64e-07 ± 1.9e-08
[1], x1 = 0.7205	–	6.18e-07 ± 1.8e-08
[1], x1 = 0.7715	–	5.27e-07 ± 1.8e-08
[1], x1 = 0.8193	–	4.41e-07 ± 1.8e-08
[1], x1 = 0.8661	–	3.61e-07 ± 1.7e-08
[1], x1 = 0.9118	–	2.76e-07 ± 1.7e-08
[1], x1 = 0.9546	–	1.35e-07 ± 1.6e-08
[2], x1 = 0.0817	0.0786 ± 0.00163	–
[2], x1 = 0.1628	0.132 ± 0.00239	–
[2], x1 = 0.2473	0.183 ± 0.00311	–
[2], x1 = 0.325	0.215 ± 0.00359	–
[2], x1 = 0.3967	0.234 ± 0.00406	–
[2], x1 = 0.463	0.243 ± 0.00406	–
[2], x1 = 0.4868	0.243 ± 0.00406	–
[2], x1 = 0.5197	0.243 ± 0.00406	–
[2], x1 = 0.5243	0.242 ± 0.00406	–
[2], x1 = 0.5644	0.239 ± 0.00406	–
[2], x1 = 0.6091	0.232 ± 0.00406	–
[2], x1 = 0.6567	0.224 ± 0.00382	–
[2], x1 = 0.7051	0.201 ± 0.00359	–
[2], x1 = 0.7582	0.175 ± 0.00311	–
[2], x1 = 0.8113	0.147 ± 0.00263	–
[2], x1 = 0.8642	0.114 ± 0.00215	–
[2], x1 = 0.9137	0.0779 ± 0.0016	–
[2], x1 = 0.9601	0.04 ± 0.00105	–

CCCCOC(=O)CC [butyl propanoate] + CCCCCCCCCCCCC
Conditions	excess molar enthalpy [kcal/mol]	excess molar volume [m3/mol]
[1], x1 = 0.0406	–	1.23e-07 ± 1.6e-08
[1], x1 = 0.0973	–	2.84e-07 ± 1.7e-08
[1], x1 = 0.1791	–	4.62e-07 ± 1.8e-08
[1], x1 = 0.2615	–	6.48e-07 ± 1.9e-08
[1], x1 = 0.3352	–	7.42e-07 ± 1.9e-08
[1], x1 = 0.4049	–	8.02e-07 ± 1.9e-08
[1], x1 = 0.4702	–	8.32e-07 ± 1.9e-08
[1], x1 = 0.5333	–	8.34e-07 ± 1.9e-08
[1], x1 = 0.5918	–	8.19e-07 ± 1.9e-08
[1], x1 = 0.6472	–	7.81e-07 ± 1.9e-08
[1], x1 = 0.6989	–	7.36e-07 ± 1.9e-08
[1], x1 = 0.7487	–	6.45e-07 ± 1.8e-08
[1], x1 = 0.7961	–	5.77e-07 ± 1.8e-08
[1], x1 = 0.84	–	4.79e-07 ± 1.8e-08
[1], x1 = 0.8821	–	3.67e-07 ± 1.7e-08
[1], x1 = 0.9219	–	2.68e-07 ± 1.7e-08
[1], x1 = 0.9617	–	1.52e-07 ± 1.6e-08
[2], x1 = 0.0777	0.0756 ± 0.00158	–
[2], x1 = 0.152	0.132 ± 0.00239	–
[2], x1 = 0.2315	0.185 ± 0.00335	–
[2], x1 = 0.3105	0.227 ± 0.00382	–
[2], x1 = 0.3857	0.253 ± 0.0043	–
[2], x1 = 0.4542	0.266 ± 0.00454	–
[2], x1 = 0.5154	0.27 ± 0.00454	–
[2], x1 = 0.5619	0.267 ± 0.00454	–
[2], x1 = 0.6157	0.26 ± 0.0043	–
[2], x1 = 0.6596	0.244 ± 0.00406	–
[2], x1 = 0.7081	0.225 ± 0.00382	–
[2], x1 = 0.7591	0.196 ± 0.00335	–
[2], x1 = 0.8107	0.165 ± 0.00287	–
[2], x1 = 0.857	0.132 ± 0.00239	–
[2], x1 = 0.9081	0.0902 ± 0.00179	–
[2], x1 = 0.9555	0.0467 ± 0.00115	–
